This is an account of results in paper PMC3576085 (The Journal of Biological Chemistry, 2012).

The target in this test is T1, CBM65B (EcCel5A) ([Eubacterium] cellulosolvens, UniProt Q3LHN3).
T1 sequence (Q3LHN3 581-713): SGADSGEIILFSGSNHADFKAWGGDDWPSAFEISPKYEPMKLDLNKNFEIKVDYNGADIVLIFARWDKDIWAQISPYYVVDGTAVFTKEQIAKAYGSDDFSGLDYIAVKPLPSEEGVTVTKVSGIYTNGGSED
Briefly: ITC. It counts as binding. Particulars: 50 mM Na-HEPES pH 7.5, 25 °C; n 1.

For the molecule `OC[C@H]1O[C@@H](O[C@H]2[C@H](O)[C@@H](O)[C@H](O[C@H]3[C@H](O)[C@@H](O)[C@H](O[C@H]4[C@H](O)[C@@H](O)[C@H](O[C@H]5[C@H](O)[C@@H](O)[C@H](O[C@H]6[C@H](O)[C@@H](O)C(O)O[C@@H]6CO)O[C@@H]5CO)O[C@@H]4CO)O[C@@H]3CO)O[C@@H]2CO)[C@H](O)[C@@H](O)[C@@H]1O` (stereo partly shown) [C6, cellohexaose], the Ka is 2.3 (±0.2) x 10^3.
